The values that follow come from US9980943B2, “Methods of treating muscular dystrophy” (BOARD OF REGENTS OF THE NEVADA SYSTEM OF HIGHER EDUCATION, …, priority 2013, dated 2018).

Structures are written as SMILES. Read-outs that look alike come from different tables or passages of the source.

Assay [1] deals with α7 integrin (LacZ reporter in α7LacZ+/− myoblasts). As to the kind of experiment: qHTS of the LOPAC library and MLSMR (online screen, α7LacZ+/− myoblasts). The following applies: Mus musculus, Myoblast; for activation at 0.307 µM: read-out: Activity at 0.307 uM [%] **; for activation at 1.53 µM: read-out: Activity at 1.530 uM [%] **; for activation at 7.66 µM: read-out: Activity at 7.660 uM [%] **; for activation at 38.3 µM: read-out: Activity at 38.30uM [%] **; for EC50: read-out: Fit LogAC50 (converted).

In assay [2] the test system is α7 integrin (LacZ reporter in α7βgal+/− myoblasts). Briefly: Myoblast α7+/LacZ integrin FDG assay (Burkin assay in myoblasts, 96-well). The following applies: α7+/LacZ myoblasts, 96-well. It is filed as cell-based, mouse.
Assay [3] deals with α7 integrin (LacZ reporter in α7+/LacZ myotubes). Briefly: Myotube α7 integrin FDG assay (Burkin assay in myotubes, 96-well). Type of assay: cell-based, mouse. The note with it: myotubes.
Assay [4] deals with β-galactosidase in CMV-LacZ C2C12 myotubes. Briefly: CMV-LacZ secondary screen in C2C12 myotubes (β-Gal stabilizing assay). Type of assay: cell-based, mouse. The note with it: for CMV-LACZ in Myotubes (β-galactosidase activity relative to DMSO): CMV-LacZ C2C12 myotubes, 96-well format. The method in brief:
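First, C2C12 myoblasts were transfected with a linearized CMV-LACZ vector and clonal lines selected by FDG β-gal assay. Then cells were exposed to compounds at 0.5, 1, 5, 10, 20 and 40 μM in 96-well format, two replicates each, and β-gal measured.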

The mark [5] stands for this setting: 48 h, read-out: Fit Infinite Activity [%].

With `O=C1SC(Cc2ccccc2)C(=O)N1c1ccccc1` (stereo not shown) [Compound 50], in assay [1] (48 h), the activation at 0.307 µM came out at 7.9%, the activation at 1.53 µM came out at 9.4%, the activation at 7.66 µM is 94.1% and the activation at 38.3 µM worked out at 176%. In addition, in assay [1] (setting [5]), the Emax was determined as 186%. Also, the EC50 in assay [1] is 7.94 µM.
`CCCCC(C(=O)NC1CCCC1)N(C(=O)c1snc(C(N)=O)c1N)c1ccc(C)cc1` (stereo not shown) [Compound 151]: in assay [1] (48 h), the activation at 0.307 µM was -26.6%, the activation at 1.53 µM is -26%, the activation at 7.66 µM came out at 2.04% and the activation at 38.3 µM worked out at 63.7%. The Emax in assay [1] (setting [5]) came out at 65.1%. Besides, the EC50 in assay [1] was 10 µM. Moreover, the Emax in assay [1] (read-out: Max Response [%]) is 63.7%.
With `COc1cc(/C=C2/C(=N)N3C(SC)=NSC3=NC2=O)ccc1OC(=O)c1ccco1` [Compound 30], in assay [1] (48 h), the activation at 0.307 µM is -18.3%, the activation at 1.53 µM was -9.07%, the activation at 7.66 µM was 55.5% and the activation at 38.3 µM was 73.4%. Moreover, the Emax in assay [1] (setting [5]) was 73.6%. In addition, in assay [1], the EC50 is 3.98 µM.
On to `COc1cc(=O)n(C)c2ccccc12` [Compound 25], for which, in assay [1] (48 h), the activation at 0.307 µM was -16.5%, the activation at 1.53 µM turned out to be 11.1%, the activation at 7.66 µM stood at 54.5% and the activation at 38.3 µM was 63%. In addition, in assay [1] (setting [5]), the Emax was 64.1%. Also, the EC50 in assay [1] was 2.24 µM.
As for `CCc1c(C2(O)CCCCC2)[nH]c2ncccc12` [Compound 135], in assay [1] (48 h), the activation at 0.307 µM was -28.5%, the activation at 1.53 µM was -29.4%, the activation at 7.66 µM was -11.2% and the activation at 38.3 µM amounted to 62%. Besides, the Emax in assay [1] (setting [5]) was determined as 61.8%. The EC50 in assay [1] is 10 µM. In addition, the Emax in assay [1] (read-out: Max Response [%]) turned out to be 62%.
In the case of `O=[N+]([O-])c1ccc(N2CCN(c3ccccc3F)CC2)nc1` [Compound 49], in assay [1] (48 h), the activation at 0.307 µM was found to be 2.3%, the activation at 1.53 µM was determined as 15.5%, the activation at 7.66 µM came to 102% and the activation at 38.3 µM amounted to 151%. Also, the Emax in assay [1] (setting [5]) is 154%. Further, the EC50 in assay [1] is 5.62 µM.
Consider `COc1ccc(-n2c(C)c(C(C)=O)c3cc(OC(C)=O)ccc32)cc1` [MLS001212998-01], for which the fold induction at 0.5 µM in assay [2] (Mus musculus, Myoblast, 48 h, 0.5 uM, read-out: Burkin Assay in Myoblasts, signal relative to DMSO) was 1.19; in assay [3] (Mus musculus, Myotube, 0.5 uM, read-out: Burkin Assay in Myotubes, α7 integrin LacZ reporter signal relative to DMSO) it was 1.14. For the same compound, the fold induction at 1 µM in assay [2] (Mus musculus, Myoblast, 48 h, 1 uM, read-out: Burkin Assay in Myoblasts, signal relative to DMSO) was determined as 1.2; in assay [3] (Mus musculus, Myotube, 1 uM, read-out: Burkin Assay in Myotubes, α7 integrin LacZ reporter signal relative to DMSO) it was 1.1. The fold induction at 5 µM in assay [2] (Mus musculus, Myoblast, 48 h, 5 uM, read-out: Burkin Assay in Myoblasts, signal relative to DMSO) was 1.45; in assay [3] (Mus musculus, Myotube, 5 uM, read-out: Burkin Assay in Myotubes, α7 integrin LacZ reporter signal relative to DMSO), 1.46; in assay [4] (Mus musculus, C2C12, read-out: CMV-LACZ in Myotubes, signal relative to DMSO, 5 uM, C2C12 CMV-LacZ myotubes, fold relative to DMSO), 0.78. The fold induction at 10 µM in assay [2] (Mus musculus, Myoblast, 48 h, 10 uM, read-out: Burkin Assay in Myoblasts, signal relative to DMSO) is 1.54; in assay [3] (Mus musculus, Myotube, 10 uM, read-out: Burkin Assay in Myotubes, α7 integrin LacZ reporter signal relative to DMSO), 1.45; in assay [4] (Mus musculus, C2C12, read-out: CMV-LACZ in Myotubes, signal relative to DMSO, 10 uM, C2C12 CMV-LacZ myotubes, fold relative to DMSO), 0.908. Further, the fold induction at 20 µM in assay [2] (Mus musculus, Myoblast, 48 h, 20 uM, read-out: Burkin Assay in Myoblasts, signal relative to DMSO) turned out to be 1.36; in assay [3] (Mus musculus, Myotube, 20 uM, read-out: Burkin Assay in Myotubes, α7 integrin LacZ reporter signal relative to DMSO) it was 1.45; in assay [4] (Mus musculus, C2C12, read-out: CMV-LACZ in Myotubes, signal relative to DMSO, 20 uM, C2C12 CMV-LacZ myotubes, fold relative to DMSO), 0.972. Further, the fold induction at 40 µM in assay [2] (Mus musculus, Myoblast, 48 h, 40 uM, read-out: Burkin Assay in Myoblasts, signal relative to DMSO) is 1.3; in assay [3] (Mus musculus, Myotube, 40 uM, read-out: Burkin Assay in Myotubes, α7 integrin LacZ reporter signal relative to DMSO) it was 1.05; in assay [4] (Mus musculus, C2C12, read-out: CMV-LACZ in Myotubes, signal relative to DMSO, 40 uM, C2C12 CMV-LacZ myotubes, fold relative to DMSO), 0.783.
Turning to `N/C(=N\OC(=O)COc1cc(Cl)c(Cl)cc1Cl)c1ccncc1` [MLS000625140-01], the “Burkin Assay in Myoblasts, value relative to DMSO” value was found to be 0.8839 in assay [2] (0.5 uM); 0.8709 in assay [2] (1 uM); 0.8748 in assay [2] (5 uM); 0.7833 in assay [2] (10 uM); 0.7589 in assay [2] (20 uM); 0.6829 in assay [2] (40 uM). For the same compound, the “Burkin Assay in Myotubes (signal relative to DMSO)” value in assay [3] (0.5 uM) amounted to 0.8484; in assay [3] (1 uM), 0.8454; in assay [3] (5 uM) it was 1.114; in assay [3] (10 uM), 0.9131; in assay [3] (20 uM), 0.6793; in assay [3] (40 uM), 0.6514. Also, the “CMV-LACZ in Myotubes (β-galactosidase activity relative to DMSO)” value came out at 0.9172 in assay [4] (5 uM), 1.036 in assay [4] (10 uM), 1.107 in assay [4] (20 uM) and 1.016 in assay [4] (40 uM).
